Test results from ChEMBL document CHEMBL3217559, “Monocyte and macrophage selective anti-inflammatory kinase inhibitors” (Medchemcomm, 2012).
One block for each compound: values may come before it.

Key:
[1] = molecular target: Mitogen-activated protein kinase 14 (Homo sapiens, UniProt Q16539); assay: Inhibition of p38 MAP kinase alpha (unknown origin) after 1 hr by Z'-lyte assay
Liver carboxylesterase 1 [2] = molecular target: T1, Liver carboxylesterase 1 (Homo sapiens, UniProt P23141); assay: Drug metabolism in human U937 cell lysate assessed as human CE1-mediated N-[2-(4-{6-Amino-5-[(2,4-difluorophenyl)carbonyl]-2-oxopyridin-1(2H)-yl}-3,5 difluorophenyl)ethyl]-L-leucine formation at 2.5 uM after 10 to 80 mins by LC/MS/MS analysis; type: ADME, cell-based; settings: u-937, 2.5 µM
T1 sequence (P23141 whole entry): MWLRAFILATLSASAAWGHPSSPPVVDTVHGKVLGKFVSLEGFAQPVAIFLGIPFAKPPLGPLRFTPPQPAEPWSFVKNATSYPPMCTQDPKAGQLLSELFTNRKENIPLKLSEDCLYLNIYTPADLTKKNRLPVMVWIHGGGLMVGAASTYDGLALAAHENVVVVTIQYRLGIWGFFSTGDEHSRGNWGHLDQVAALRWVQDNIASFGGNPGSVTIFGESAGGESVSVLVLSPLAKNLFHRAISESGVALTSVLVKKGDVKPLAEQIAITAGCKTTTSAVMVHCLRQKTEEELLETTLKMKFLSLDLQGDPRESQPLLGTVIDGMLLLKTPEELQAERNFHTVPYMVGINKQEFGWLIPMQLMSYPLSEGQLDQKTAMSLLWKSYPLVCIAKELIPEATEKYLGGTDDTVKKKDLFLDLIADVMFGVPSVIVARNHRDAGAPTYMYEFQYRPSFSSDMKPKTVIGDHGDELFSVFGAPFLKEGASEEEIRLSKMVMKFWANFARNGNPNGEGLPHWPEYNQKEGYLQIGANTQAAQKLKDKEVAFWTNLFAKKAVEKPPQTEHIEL

THP-1 = assay: Inhibition of LPS-induced TNFalpha production in human THP1 cells; type: functional, cell-based
Blood = assay: Inhibition of LPS-induced TNFalpha production in human whole blood; type: functional, tissue-based
MAP kinase p38 [3] = molecular target: T2, MAP kinase p38 (Homo sapiens, UniProt O15264+Q15759+Q16539+P53778); assay: Inhibition of p38 MAP kinase-mediated MAPKAPK2 phosphorylation in human U937 cells after 4 hrs by chemiluminescence assay; type: cell-based; settings: u-937
MAP kinase p38 [4] = molecular target: T2, MAP kinase p38; assay: Inhibition of p38 MAP kinase-mediated MAPKAPK2 phosphorylation in human Hut78 cells after 4 hrs by chemiluminescence assay; type: cell-based
HuT78 [5] = assay: Drug metabolism in human HUT78 cell lysate assessed as N-[2-(4-{6-Amino-5-[(2,4-difluorophenyl)carbonyl]-2-oxopyridin-1(2H)-yl}-3,5 difluorophenyl)ethyl]-L-leucine formation at 2.5 uM after 10 to 80 mins by LC/MS/MS analysis; type: ADME, cell-based; settings: hut78, 2.5 µM
Liver carboxylesterase 1 [6] = molecular target: T1, Liver carboxylesterase 1; assay: Drug metabolism in intact human U937 cells assessed as human CE1-mediated N-[2-(4-{6-Amino-5-[(2,4-difluorophenyl)carbonyl]-2-oxopyridin-1(2H)-yl}-3,5 difluorophenyl)ethyl]-L-leucine formation per million cells at 2.5 uM after 6 hrs by LC/MS/MS analysis; type: ADME, cell-based; settings: u-937, 6 h
HuT78 [7] = assay: Drug metabolism in intact human HUT78 cells assessed as N-[2-(4-{6-Amino-5-[(2,4-difluorophenyl)carbonyl]-2-oxopyridin-1(2H)-yl}-3,5 difluorophenyl)ethyl]-L-leucine formation per million cells at 2.5 uM after 6 hrs by LC/MS/MS analysis; type: ADME, cell-based; settings: hut78, 6 h
Liver carboxylesterase 1 [8] = molecular target: T1, Liver carboxylesterase 1; assay: Drug metabolism in human U937 cell lysate assessed as human CE1-mediated 5-(4-{6-Amino-5-[(2,4-difluorophenyl)carbonyl]-2-oxopyridiny1(2H)-yl}-3,5-difluorophenoxy)-L-norvaline formation at 2.5 uM after 10 to 80 mins by LC/MS/MS analysis; type: ADME, cell-based; settings: u-937, 2.5 µM
HuT78 [9] = assay: Drug metabolism in human HUT78 cell lysate assessed as 5-(4-{6-Amino-5-[(2,4-difluorophenyl)carbonyl]-2-oxopyridiny1(2H)-yl}-3,5-difluorophenoxy)-L-norvaline formation at 2.5 uM after 10 to 80 mins by LC/MS/MS analysis; type: ADME, cell-based; settings: hut78, 2.5 µM
Liver carboxylesterase 1 [10] = molecular target: T1, Liver carboxylesterase 1; assay: Drug metabolism in intact human U937 cells assessed as human CE1-mediated 5-(4-{6-Amino-5-[(2,4-difluorophenyl)carbonyl]-2-oxopyridiny1(2H)-yl}-3,5-difluorophenoxy)-L-norvaline formation per million cells at 2.5 uM after 6 hrs by LC/MS/MS analysis; type: ADME, cell-based; settings: u-937, 6 h
HuT78 [11] = assay: Drug metabolism in intact human HUT78 cells assessed as 5-(4-{6-Amino-5-[(2,4-difluorophenyl)carbonyl]-2-oxopyridiny1(2H)-yl}-3,5-difluorophenoxy)-L-norvaline formation per million cells at 2.5 uM after 6 hrs by LC/MS/MS analysis; type: ADME, cell-based; settings: hut78, 6 h

Chain of Mitogen-activated protein kinase 14 (Q16539 whole entry): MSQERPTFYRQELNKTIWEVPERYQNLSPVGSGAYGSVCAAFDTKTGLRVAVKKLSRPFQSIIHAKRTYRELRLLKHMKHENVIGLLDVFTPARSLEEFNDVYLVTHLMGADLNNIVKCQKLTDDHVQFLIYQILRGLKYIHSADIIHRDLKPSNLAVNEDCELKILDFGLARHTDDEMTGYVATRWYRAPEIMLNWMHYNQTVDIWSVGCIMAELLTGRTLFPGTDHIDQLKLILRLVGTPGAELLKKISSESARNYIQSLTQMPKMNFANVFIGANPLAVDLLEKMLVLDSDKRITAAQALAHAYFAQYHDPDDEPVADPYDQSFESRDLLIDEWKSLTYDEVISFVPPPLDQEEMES

SMILES: CC(C)C[C@H](NCCc1cc(F)c(-n2c(N)c(C(=O)c3ccc(F)cc3F)ccc2=O)c(F)c1)C(=O)OC1CCCC1
Drug metabolism (Liver carboxylesterase 1 [2]): 3036 pg/mL/min
IC50 [1]: 273 nM
IC50 (THP-1): 0.74 nM
IC50 (Blood): 57.5 nM
IC50 (MAP kinase p38 [3]): 0.65 nM
IC50 (MAP kinase p38 [4]): 73 nM
Drug metabolism (HuT78 [5]): < 20 pg/mL/min
Drug metabolism (Liver carboxylesterase 1 [6]): 606 ng
Drug metabolism (HuT78 [7]): 0.5 ng

SMILES: Nc1c(C(=O)c2ccc(F)cc2F)ccc(=O)n1-c1c(F)cccc1F
IC50 [1]: 1.86 nM
IC50 (THP-1): 1.5 nM
IC50 (Blood): 182 nM
IC50 (MAP kinase p38 [3]): 10 nM
IC50 (MAP kinase p38 [4]): 10 nM

SMILES: Nc1c(C(=O)c2ccc(F)cc2F)ccc(=O)n1-c1c(F)cc(OCCC[C@H](N)C(=O)OC2CCCC2)cc1F
IC50 [1]: 6.5 nM
IC50 (THP-1): 1.4 nM
IC50 (Blood): 28.8 nM
IC50 (MAP kinase p38 [3]): 1 nM
IC50 (MAP kinase p38 [4]): 1 nM
Drug metabolism (Liver carboxylesterase 1 [8]): 10613 pg/mL/min
Drug metabolism (HuT78 [9]): 14326 pg/mL/min
Drug metabolism (Liver carboxylesterase 1 [10]): 1407 ng
Drug metabolism (HuT78 [11]): 727 ng

Compounds with a lower IC50 [1], results first:

IC50 [1]: 1 nM
SMILES: Nc1c(C(=O)c2ccc(F)cc2F)ccc(=O)n1-c1c(F)cc(OCCC[C@H](N)C(=O)O)cc1F

IC50 [1]: 1.2 nM
SMILES: CC(C)C[C@H](NCCc1cc(F)c(-n2c(N)c(C(=O)c3ccc(F)cc3F)ccc2=O)c(F)c1)C(=O)O
